Laboratory results reported in US9393316B2, “Cancer targeting peptides for enhancing anti-cancer drug delivery and therapeutic efficiencies” (priority 2014, dated 2016).

Tested on: HCT116 xenografts
Assay: In vivo peptide competitive inhibition of phage tumor homing
Design: species or system mice
Conditions: co-injected with corresponding phage clone
Protocol: Non-obese diabetic-severe combined immunodeficiency (NOD/SCID) mice were injected subcutaneously (s.c.) into the dorsolateral flank with 5×10^6 HCT116 cells. When the xenograft tumor size reached 300±50 mm^3, the mice were injected intravascularly (i.v.) with 2×10^11 pfu of the targeting phage or control phage M13KO7. Seven min after injection, the mice were sacrificed and perfused through the heart with 50 mL of PBS to wash unbound phages. After perfusion, xenograft tumor and mouse organs were taken out, washed three times with cold PBS, and cut into pans, with some of them homogenized. The phages bound to each tissue sample were recovered by log-phase Escherichia coli ER2738 culture and were titered on LB/IPTG/X-Gal agar plates. In peptide competitive inhibition experiments, 2×10^9 pfu of phage was co-injected with 100 μg of corresponding peptide or an unrelated control peptide.
The tumor-homing ability of HCT63, HCT69 and HCT74 phages were further confirmed by peptide competitive inhibition experiment. Mice bearing HCT116 xenografts were co-injected with HCT63, HCT69 and HCT74 phages clones and the homologous cognate synthetic peptide; pHCT63, pHCT69 and pHCT74 peptides (SEQ ID NOs: 1-3, respectively), respectively.

## SSMDIVLRAPLM (HCT-74) [pHCT74]
  inhibition of phage recovery from tumor tissue by cognate peptide: markedly inhibited the recovery of phage particles from tumor tissue

## TSVSIVSTVLTP (HCT-69) [pHCT69]
  inhibition of phage recovery from tumor tissue by cognate peptide: markedly inhibited the recovery of phage particles from tumor tissue
